# Assay results from PMC10005754, “Non-Nutritive Sweeteners Acesulfame Potassium and Sucralose Are Competitive Inhibitors of the Human P-glycoprotein/Multidrug Resistance Protein 1 (PGP/MDR1)” (Nutrients, 2023).
# pEC50: −log10 of the molar value.
# Molecular target: T1, P-glycoprotein (PGP/MDR1) (Homo sapiens, UniProt P08183)
# T1 construct: gene ABCB1; recombinant human PGP in membrane vesicles (Human MDR1 vesicles)
# Assay: ATPase stimulation (ADP-Glo Max) in human MDR1 vesicles; also Calcein-AM retention in HepG2 cells
# Assay type: biochemical
# T1 sequence (P08183 whole entry): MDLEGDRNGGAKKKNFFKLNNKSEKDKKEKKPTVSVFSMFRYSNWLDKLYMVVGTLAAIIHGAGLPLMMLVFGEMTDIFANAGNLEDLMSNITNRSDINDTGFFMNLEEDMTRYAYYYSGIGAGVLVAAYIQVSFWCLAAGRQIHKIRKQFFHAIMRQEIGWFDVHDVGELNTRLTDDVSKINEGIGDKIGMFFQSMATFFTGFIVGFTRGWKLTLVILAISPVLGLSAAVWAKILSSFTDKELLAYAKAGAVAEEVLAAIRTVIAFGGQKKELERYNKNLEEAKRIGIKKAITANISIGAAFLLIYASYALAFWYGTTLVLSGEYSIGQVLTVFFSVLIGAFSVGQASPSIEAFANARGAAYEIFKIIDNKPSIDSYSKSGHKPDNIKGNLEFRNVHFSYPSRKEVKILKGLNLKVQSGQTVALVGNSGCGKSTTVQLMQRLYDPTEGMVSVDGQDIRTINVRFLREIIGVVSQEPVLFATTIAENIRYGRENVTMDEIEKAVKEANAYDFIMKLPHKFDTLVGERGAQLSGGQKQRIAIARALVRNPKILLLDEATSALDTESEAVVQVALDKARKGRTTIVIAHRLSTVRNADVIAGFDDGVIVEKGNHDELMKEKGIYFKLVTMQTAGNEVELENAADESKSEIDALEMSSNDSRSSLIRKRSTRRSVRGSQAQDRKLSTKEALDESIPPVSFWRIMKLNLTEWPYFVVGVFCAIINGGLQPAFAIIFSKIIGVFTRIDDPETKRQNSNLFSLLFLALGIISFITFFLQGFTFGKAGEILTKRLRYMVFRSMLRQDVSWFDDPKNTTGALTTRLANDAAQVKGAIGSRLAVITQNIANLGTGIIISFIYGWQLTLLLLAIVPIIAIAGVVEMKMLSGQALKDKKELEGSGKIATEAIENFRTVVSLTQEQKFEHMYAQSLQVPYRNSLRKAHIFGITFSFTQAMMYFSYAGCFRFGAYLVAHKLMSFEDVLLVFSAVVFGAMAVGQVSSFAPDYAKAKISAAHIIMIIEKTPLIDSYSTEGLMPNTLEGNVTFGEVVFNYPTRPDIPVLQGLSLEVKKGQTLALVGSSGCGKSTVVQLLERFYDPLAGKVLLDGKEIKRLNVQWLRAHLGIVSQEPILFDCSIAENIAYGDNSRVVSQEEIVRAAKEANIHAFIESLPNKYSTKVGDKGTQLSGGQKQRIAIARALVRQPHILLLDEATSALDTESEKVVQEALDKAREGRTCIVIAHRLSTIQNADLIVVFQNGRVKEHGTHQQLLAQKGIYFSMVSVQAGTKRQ
structure (smiles),measurement,value
"OC[C@H]1O[C@H](O[C@]2(CCl)O[C@H](CCl)[C@@H](O)[C@@H]2O)[C@H](O)[C@@H](O)[C@H]1Cl [Sucr, sucralose]",pEC50,10.25
